Drawing on a melting point compilation (Tetko et al.; mined from patent text by program, amines drawn as free bases though some values may be those of a salt), this text covers melting point for 90 compounds.

`CCCc1cc2c(=O)n3cc(C#N)ccc3nc2s1` gave a melting point of 217 to 218 °C. `CCC(=O)NC(=O)C(CC)(OC(=O)CC)C(=O)NC(=O)CC` displayed a melting point of 90 °C.

The compound `O=C(c1ccc2cc(Cl)ccc2c1)C1CCNCC1` showed a melting point of 98 to 100 °C. Next, `CCOCCNC(=O)c1cc2c(nc(C)n2C)c2c1CCC1(Cc3ccccc3C1)N2`: 180 to 181 °C; `CC(CCn1c(=O)[nH]c2cc(F)ccc21)N1CCN(c2ccc(F)cc2)CC1` (stereo not given): 188 to 193 °C. Next, `Cc1ccc(N2C(=O)C(O)=C(C(=O)c3ccc(C(C)C)cc3)C2c2ccc(OC3CC3)cc2)nn1` (stereo not given): 285 to 288 °C; `CCCn1c(=O)c2nc(-c3ccc(/C=C/C(=O)O)cc3)[nH]c2n(CC2CCCCC2)c1=O`: more than 350 °C; `COc1ccc(-c2ccn(C)c2-c2ccc(OC)cc2)cc1`: 126 to 127 °C. `CCCN(Cc1ccc(-c2ccccc2C(=N)NO)cc1)c1nc2ccccc2cc1C(=O)OCC` registered a melting point of 61 to 67 °C. Next, `CCC(=O)NCc1ccc2ccn(C3CCN(CCc4ccccc4F)CC3)c2c1`: 118 to 119 °C. Next, `O=C(O)c1cccc(CN2C(=O)N(c3ccccc3Br)Cc3cnc(Nc4ccccc4)nc32)c1`: 180 to 183 °C. Next, `O=C1NCc2c(Oc3ccccc3)cccc2N1c1ccccc1`: 225 to 227 °C; `O=c1ccsc2c1[nH]c1ccccc12`: 242 to 243 °C; `O=C(CCc1ccc(Cl)cc1)N1CCC(CCO)CC1`: 88 to 90 °C. In turn, `Clc1ccc(-c2nc(I)c[nH]2)cc1Cl` had a melting point of 206 to 207 °C. Next, `CCCCOc1cccc(C(=O)C=Cc2ccc(OC)cc2OC)c1`: 80.4 to 81.3 °C. Take `O=Cc1cc(O)c(O)cc1[N+](=O)[O-]`: the melting point amounted to 201 °C. Next, `N#CCCNC(=O)c1cccc(-c2cccc(Oc3ccc4[nH]ccc4c3)n2)c1`: 150 to 151 °C. Next, `O=S(=O)(c1ccc(Cl)cc1)n1ccc2cc(F)ccc21`: 108 to 109 °C; `CS(=O)c1cccc2c1C(=O)N1CCCC1c1c(C(=O)OC(C)(C)C)ncn1-2` (stereo not given): 224 to 225 °C. Next, `Cc1cc(C)c2c(c1C)OCC2c1ccc(Br)cc1` (stereo not given): 72 to 73 °C. With `Cc1oc(-c2ccccc2)nc1CCc1ccc(/C=C/C=C/C=O)cc1`, the melting point was 107 to 108 °C.

The compound `CCN(CC)C(=O)n1ccc(S(=O)(=O)c2c(C)cccc2OC)n1` showed a melting point of 71 to 73 °C. Next, `NC(=S)NC[C@H]1CN(c2ccc(N3CCN(C(=O)CO)CC3)c(F)c2)C(=O)O1`: 209 to 210 °C; `O=C1O[C@@H](Cn2ccnn2)CN1c1ccc(-c2ccc(CN3CCOCC3)nc2)c(F)c1`: 175 °C. Next, `Cc1nn(C)c(O)c1C(=O)c1ccc(S(C)(=O)=O)c(-c2cnco2)c1Cl`: 236 to 241 °C; `CN(CCOc1ccc(CCCC2OC(=O)NC2=O)cc1)c1ccccn1` (stereo not given): 126 to 127 °C.

The compound `CCC(CC)c1ccc(Cl)c2nc(Nc3ccc(Br)cc3C)n(CCCCO)c12` displayed a melting point of 151 to 152 °C.

`O=C(Cc1cccnc1)[N+]1([O-])CCC(C2c3ccc(Cl)cc3CCc3cccnc32)CC1` (stereo not given) registered a melting point of 117 to 118 °C. On to `NS(=O)(=O)c1cc2c(s1)SC(CCO)CN2` (stereo not given), for which the melting point lay in the range of 145 to 147 °C. Next, `Cc1oc(-c2ccccc2)nc1COc1ccc2c(-c3ccccc3)c(CO)oc2c1`: 152 to 153 °C; `CCOC(=O)CNC(=O)N1CCc2cc(S(=O)(=O)N3CCN(c4cccc(Cl)c4)CC3)ccc21`: 150 °C. `CON(C)C(=O)c1ccc(-c2ccc(CN(C)C)cc2)cc1` registered a melting point of 42 to 43 °C.

`O=C1NCCc2cc(O)ccc21`: the melting point lay within 204 to 206 °C. Next, `CC1(C)CCN(C(=O)NCc2ccccc2)c2cc(C#N)ccc21`: 114 to 115 °C. Next, `COc1nc(NC(=O)NS(=O)(=O)Nc2nc(C)cc(C)n2)nc(OC)n1`: 172 °C; `NC(=O)N(O)Cc1cccs1`: 112 °C; `Cc1cc(C2=CC3(CC(C)(C)C2CO)SCCCS3)ccc1F` (stereo not given): 128 to 129 °C. Next, `O=S1(=O)N(CCCl)c2cccc3c2N1CCC3`: 70 °C; `C=CCOC(=O)C1CC(=O)N(C2CC(C)(C)N(C)C(C)(C)C2)C1` (stereo not given): 48 to 49 °C.

The compound `C=CCONC(=O)n1nc(Oc2c(Cl)cc(C(F)(F)F)cc2Cl)cc1C` yielded a melting point of 68 to 70 °C. Next, `COCC1CN(c2ccc(C3CCCCC3)cc2)C(=O)O1` (racemic): 86 to 88 °C; `CC(Cc1cc([N+](=O)[O-])cc2ccoc12)NC(=O)OC(C)(C)C` (stereo not given): 131 to 132 °C; `Cc1ccc(S(=O)(=O)O[C@H](C)C(=O)N2C(=O)N(C)C[C@H]2C(=O)OC(C)(C)C)cc1`: 78 to 80 °C. Next, `N#Cc1c[nH]c(-c2ccc3ccccc3c2)c1`: 200 to 206 °C; `O=[N+]([O-])c1cccc(-c2cc3c(Cl)ncnc3o2)c1`: 196 to 205 °C; `O=[N+]([O-])c1ccc(N=Nc2ccc(O)c(CO)c2)cc1`: 178 to 179 °C.

Take `O=C(O)c1ccc(OC(=O)c2cccc(C(=O)Oc3ccc(C(=O)O)cc3)c2)cc1`: the melting point lay within 290 to 300 °C. Compound `c1ccc2nc(CN(CCN(Cc3ccc4ccccc4n3)Cc3ccc4ccccc4n3)Cc3ccc4ccccc4n3)ccc2c1` came in with a melting point of 196 to 198 °C. For `CCCc1c(OCCOCCC(=O)OC)ccc(C(C)=O)c1O`, the melting point lay in the range of 48 to 50 °C.

In turn, `COc1ccccc1C(=O)NS(=O)(=O)c1ccc(NC(=O)C2CCCC2)cc1` displayed a melting point of 202 to 206 °C. Next, `CCOc1ccc(-c2nc(CCC(=O)O)cs2)cc1OCC`: 111 to 114 °C; `O=C(O)c1c([N+](=O)[O-])cccc1[N+](=O)[O-]`: 200 to 202 °C; `Clc1ccc2[nH]nc(I)c2c1`: 198 to 199 °C.

As to `O=C(C(Br)c1ccc(Cl)cc1)C1(c2ccc(Cl)c(Cl)c2)CCC1` (stereo not given), the melting point was 109 to 110 °C. Next, `COc1nccnc1C1(O)CN2CCC1CC2` (stereo not given): 130 to 131 °C; `Cc1nc(Sc2ccc(N)cc2)nc(C)c1Cl`: 160 to 161 °C. For the compound `Cn1nc(-c2ncc(Cl)cc2F)c(C(F)F)c1OC(F)F`, the melting point lay in the range of 79 to 81 °C. Next, `O[C@H]1CC[C@H](n2cnc(-c3ccc(F)cc3)c2-c2ccnc(Oc3ccccc3)n2)CC1`: 212 to 215 °C; `O=C(NCCc1cccs1)c1ccc(-c2ccccc2)cc1`: 164 to 166 °C. Next, `Cc1ccc(CS(=O)c2c(O)cc(C)oc2=O)cc1` (stereo not given): 156 to 158 °C; `O=C(CSCc1ccc(F)cc1)NO`: 115 to 116 °C; `Cc1cc(C)c(S(=O)(=O)n2c(CCC(=O)O)cc3cc(Cl)ccc32)c(C)c1`: 132 to 134 °C.

On to `Nc1nnc(-c2ccc3occ(-c4ccc(OC(F)(F)F)cc4)c3c2)o1`, for which the melting point lay in the range of 223 to 224 °C. Next, `O=C1N=c2ccc(OCCBr)cc2=N1`: 225 to 226 °C; `C[C@H](CCC=O)[C@H]1CC[C@@]2(C)C3=C(CC[C@]12C)[C@@]1(C)CCC(=O)C(C)(C)C1CC3` (stereo not given in full): 110 to 115 °C; `CC(C)c1ccc(C(=O)Cc2ccccc2C(F)(F)F)c(C(C)C)c1OS(N)(=O)=O`: 144 to 149 °C. Next, `Cn1cc(-c2ncc(-c3ccc4cc(OCc5nnn[nH]5)ccc4c3)o2)c2ccccc21`: 254 to 256 °C; `COc1ccc(-c2[nH]nc3c2C(=O)c2c(NC(=O)Nc4ccncc4)cccc2-3)cc1`: more than 300 °C; `OCC1Oc2cccc(F)c2OC1CO` (stereo not given): 122 to 124 °C. Next, `O=C1CCC(N2C(=O)c3cccc(NC(=O)c4cccc(F)c4)c3C2=O)C(=O)N1` (stereo not given): 260 to 262 °C; `CC(C)(C)OC(=O)NCC(=O)Nn1cccc1C(=O)c1ccccc1F`: 114 to 116 °C; `CCOc1cc(F)ccc1C(=O)c1ccc(OC)c(Cl)c1Cl`: 107 to 109 °C. `COc1ccc(-c2csc(NC(=O)c3cc4ccccc4cn3)n2)cc1OC` yielded a melting point of 228 to 230 °C. `O=C(c1ccco1)C1C(=O)N(c2nccs2)c2ccccc21` (stereo not given) yielded a melting point of 156 to 157 °C.

On to `N#CCCC(CCC(=O)O)(c1ccccc1)c1ccccc1`, for which the melting point was 119 to 120 °C. Next, `CN(C)c1ccc(NC2=CC(=O)C(N)=CC2=O)cc1`: 300 °C. Next, `CCOC(=O)C1=C(C)NC(N=CN(C)C)=C(C(=O)OCC)C1c1ccccc1` (stereo not given): 131 °C. Next, `CCCCc1c(Cl)nc(N)nc1-c1cc2ccccc2o1`: 195 to 196 °C; `O=C(Cc1cc(O)no1)OC(c1ccccc1)c1ccccc1`: 105 to 106 °C; `c1ccc2c3c([nH]c2c1)CCN(CCCCc1ccncc1)C3`: 204 to 206 °C. The compound `CN(C)C(=O)OC1CCN(c2ncc(-c3ccccc3Cl)cn2)CC1` showed a melting point of 86 to 88 °C. With `CCCOc1nsc(NC(=O)NC)c1C#N`, the melting point is 220 °C. Next, `NNc1cc(-c2ccccn2)ccn1`: 120 to 121 °C. Next, `CCOC(=O)c1ncn2c1CN=C(c1ccccc1F)c1cc(C#C[Si](C)(C)C)ccc1-2`: 196 to 198 °C. Next, `CC[C@@]12C[C@H](O)[C@](O)(c3ccccc3)C[C@H]1CCc1cc(O)ccc12`: 191 to 192 °C; `CCOC(=O)Nc1ccc(C(c2ccccc2)n2ccnc2)cc1C=O` (stereo not given): 107 °C; `CC1(C)C=C(N2CCCC2=O)c2cc(C#N)ccc2C1`: 131 to 132 °C. In turn, `COc1ccc(C(=O)Oc2ccc(C(=O)O)c(O)c2)cc1C12CC3CC(CC(C3)C1)C2` came in with a melting point of 243 to 244 °C. Next, `C[C@@H]1[C@@H](NC(=O)OCc2ccccc2)CN1S(=O)(=O)O`: 55 to 64 °C.

By melting point is commonly meant the temperature, or range, at which the solid turns liquid.
